Experimental findings from patent US9440941B2, “Substituted chroman-6-yloxy-cycloalkanes and their use as pharmaceuticals” (SANOFI, priority 2013, dated 2016) are described below.

Structures can show the parent of a compound that is named as a salt.

This test concerns the target T1, human NCX1 (Homo sapiens, UniProt P32418).
T1 construct: expressed in transfected cells
Description: Inhibition of Ca2+ influx into cells (NCX1 reverse mode), FLIPR Fluo-4 assay. The test is classed as cell-based. To be noted: inhibition of NCX1 in reverse mode (Ca2+ influx into cells); read-out: NCX1rv IC50. From the text: The sodium/calcium exchanger NCX1 can transport calcium ions and sodium ions through the cell membrane. The transport is an exchange of Ca^2+ and Na^+ in two directions depending on membrane potential and ion gradients. At the first direction, named “forward mode” or “calcium export mode”, Ca^2+ is transported out of the cell and Na^+ is transported into the cell. At the other direction, named “reverse mode” or “calcium import mode”, the transport directions are vice versa. The effect of the compounds of the invention on NCX1 was determined in CHO cells stably expressing human NCX1 (gene symbol SLC8A1; cf. WO 2009/115238). The assay is based on the monitoring of intracellular Ca^2+ concentrations using a calcium-sensitive fluorescence dye which is detected by means of a FLIPR device (Fluorimetric Imaging Plate Reader, Molecular Devices).
Assay Technology—Reverse Mode
The assay is based on the monitoring of intracellular Ca^2+ concentrations using the calcium-sensitive dye Fluo-4. CHO cells expressing NCX1 were loaded with the dye by means of the acetoxymethyl ester Fluo-4 AM (Invitrogen, F14202), which is cleaved intracellularly by esterase activity to yield the charged species of free Fluo-4. After an preincubation period with the test compound, Gramicidine (Sigma, G5002) was added. Gramicidine is an ionophor for Na^+ ions mediating an increase of intracellular Na^+ ions. Consequently, intracellular Na^+ ions are exchanged against extracellular Ca^2+ ions (Ca^2+ influx, reverse mode). The intracellular elevation of Ca^2+ ions was detected by measuring the fluorescence of Fluo-4 at a wavelength of 520 nm by a FLIPR device.
Briefly, for the reverse mode transport assay 18000 cells per well were seeded into a 96 well microplate (Corning COSTAR 3904) and incubated overnight in culture medium (1× Nut Mix F12 (Ham) (Gibco, 21765-029); 10% (v/v) fetal calf serum (PAA Gold, A15-649); 450 μg/ml Geneticin (Gibco, 10131-027)). A total volume of 100 μl medium per well was used. For the preparation of the FLIPR assay, the culture medium was removed from the plates and 100 μl of dye solution (2 μM Fluo-4 AM; 0.02% (v/v) Pluronic F-127 (20%, Invitrogen, P3000MP); 0.1% (v/v) bovine albumin solution (30% (v/v), Sigma, A9205) in assay buffer (133.8 mM NaCl (Sigma, S5886); 4.7 mM KCl (Sigma, P3911); 1.25 mM MgCl2 (Merck, 1.05833.0250); 3.5 mM CaCl2 (Merck, 1.02083.0250); 5 mM glucose (Sigma, G7021); 10 mM Hepes (Sigma, H4034); 0.01% (v/v) Pluronic F-127 (5%, Sigma, P2443); 2.5 mM Probenecid (Maybridge, SB00915EB); pH 7.4)) were added into each well. The plates were incubated in the dark at room temperature for 80 min. After the incubation period, the dye solution was removed and the wells were washed with 100 μl of assay buffer. Then 80 μl of a solution of the test compound in assay buffer in different concentrations were added into the wells. The plates were incubated at 16° C. for 45 min. Meanwhile a 60 μM solution of Gramicidine in assay buffer (4° C.) was prepared and stored in the wells of a 96 well microplate (96 well microplate, polypropylene, U-shape (Greiner Bio-One, 650201)) at 4° C. until measurement was started. The fluorescence monitoring was performed at 240 measuring points with measurement intervals of 2 sec. After the fifth measuring point, 40 μl of the Gramicidine solution were added to each well of the assay plates to give a final Gramicidine concentration of 20 μM. For the determination of the IC50 values the minimal fluorescence value was subtracted from the maximal fluorescence value for all measuring points. The calculation of the IC50 values via the percentage inhibitions of Ca^2+ influx into cells (reverse mode) effected by the test compound was performed in Biost@t Speed 2.0.
In the case of `Cc1nn(C)c(C)c1CCC(=O)N[C@H]1CC[C@H](Oc2ccc3c(c2)CCC(c2ccccc2)O3)CC1` (relative stereo) [compound 36], the IC50 turned out to be 300 nM.

As to `Cc1n[nH]c(C)c1CCC(=O)N[C@H]1CC[C@H](Oc2ccc3c(c2)CCC(c2ccccc2)O3)CC1` (relative stereo) [compound 37], the IC50 was found to be 300 nM. The same measure for `O=C(CCn1cncn1)N[C@H]1CC[C@H](Oc2ccc3c(c2)CCC(c2ccccc2)O3)CC1` (relative stereo) [compound 38]: 400 nM; for `O=C(CCn1cccn1)N[C@H]1CC[C@H](Oc2ccc3c(c2)CCC(c2ccccc2)O3)CC1` (relative stereo) [compound 39]: 300 nM. The same measure for `Cc1nc(CC(=O)N[C@H]2CC[C@H](Oc3ccc4c(c3)CCC(c3ccccc3)O4)CC2)c(C)s1` (relative stereo) [compound 40]: 300 nM; for `Cc1cc(C)n(CC(=O)N[C@H]2CC[C@H](Oc3ccc4c(c3)CCC(c3ccccc3)O4)CC2)n1` (relative stereo) [compound 41]: 300 nM. Consider `Cc1ccnn1CCC(=O)N[C@H]1CC[C@H](Oc2ccc3c(c2)CCC(c2ccccc2)O3)CC1` (relative stereo) [compound 42], for which the IC50 is 200 nM. On to `Cc1n[nH]c(C)c1CC(=O)N[C@H]1CC[C@H](Oc2ccc3c(c2)CCC(c2ccccc2)O3)CC1` (relative stereo) [compound 43], for which the IC50 worked out at 100 nM. Under `CCC(C)(O)C(=O)N[C@H]1CC[C@H](Oc2ccc3c(c2)CCC(c2ccccc2)O3)CC1` (relative stereo) [compound 44] stands 300 nM; under `c1ccc(C2CCc3cc(O[C@H]4CC[C@H](NCc5cncs5)CC4)ccc3O2)cc1` (relative stereo) [compound 47], 400 nM. The same measure for `c1ccc(C2CCc3cc(O[C@H]4CC[C@H](NCc5ccsc5)CC4)ccc3O2)cc1` (relative stereo) [compound 50]: 600 nM. The same measure for `c1ccc(C2CCc3cc(O[C@H]4CC[C@H](NCc5cccs5)CC4)ccc3O2)cc1` (relative stereo) [compound 51]: 600 nM; for `FC(F)(F)CCN[C@H]1CC[C@H](Oc2ccc3c(c2)CCC(c2ccccc2)O3)CC1` (relative stereo) [compound 54]: 600 nM; for `c1ccc(C2CCc3cc(O[C@H]4CC[C@H](NCc5nccs5)CC4)ccc3O2)cc1` (relative stereo) [compound 55]: 400 nM. Turning to `CC(C)(C)CN[C@H]1CC[C@H](Oc2ccc3c(c2)CCC(c2ccccc2)O3)CC1` (relative stereo) [compound 58, N-(2,2-Dimethylpropyl)-[trans-4-(2-phenylchroman-6-yloxy)]-cyclohexylamine], the IC50 amounted to 600 nM. Under `Cc1nn(C)c(C)c1CN[C@H]1CC[C@H](Oc2ccc3c(c2)CCC(c2ccccc2)O3)CC1` (relative stereo) [compound 60] stands 400 nM; under `c1ccc(C2CCc3cc(O[C@H]4CC[C@H](NCC5CCOC5)CC4)ccc3O2)cc1` (relative stereo) [compound 61], 300 nM. Under `C[C@H]1CC[C@H](NC2CCC(Oc3ccc4c(c3)CCC(c3ccccc3)O4)CC2)CC1` (relative stereo) [compound 146] stands 2000 nM; under `Cc1ccccc1C1CCc2cc(O[C@H]3CC[C@H](NC(=O)CCn4cccn4)CC3)ccc2O1` (relative stereo) [compound 153], 1200 nM; under `Cc1ccccc1C1CCc2cc(O[C@H]3CC[C@H](NCC4CCOC4)CC3)ccc2O1` (relative stereo) [compound 154, (Tetrahydrofuran-3-ylmethyl)-[trans-4-(2-o-tolyl-chroman-6-yloxy)-cyclohexyl]-amine], 2200 nM. The same measure for `Cc1ccccc1C1CCc2cc(O[C@H]3CC[C@H](N(CC4CCOC4)CC4CCOC4)CC3)ccc2O1` (relative stereo) [compound 155, Bis-(tetrahydrofuran-3-ylmethyl)-[trans-4-(2-o-tolyl-chroman-6-yloxy)-cyclohexyl]-amine]: 5300 nM; for `Cc1cccc(C)c1C1CCc2cc(O[C@H]3CC[C@H](N)CC3)ccc2O1` (relative stereo) [compound 168, hydrochloride]: 4000 nM.

Regarding `Cc1cccc(C)c1C1CCc2cc(O[C@H]3CC[C@H](NCC4CCOC4)CC3)ccc2O1` (relative stereo) [compound 171], the IC50 amounted to 8300 nM.

For `Cc1cccc(C)c1C1CCc2cc(O[C@H]3CC[C@H](NC(=O)CCn4cccn4)CC3)ccc2O1` (relative stereo) [compound 172], the IC50 came to 7100 nM. Under `N[C@H]1CC[C@H](Oc2ccc3c(c2)CCC(c2ccccc2F)O3)CC1` (relative stereo) [compound 176, hydrochloride] stands 1300 nM; under `Fc1ccccc1C1CCc2cc(O[C@H]3CC[C@H](NCC4CCOC4)CC3)ccc2O1` (relative stereo) [compound 178], 1600 nM; under `O=C(CN1CCCC1)N[C@H]1CC[C@H](Oc2ccc3c(c2)CCC(c2ccccc2)O3)CC1` (relative stereo) [compound 182], 300 nM. Under `Cc1ccccc1C1CCc2cc(O[C@H]3CC[C@@H](CNC(=O)CN)CC3)ccc2O1` (relative stereo) [compound 185, hydrochloride] stands 600 nM; under `Cc1ccc(F)cc1C1CCc2cc(O[C@H]3CC[C@H](NC(=O)CN)CC3)ccc2O1` (relative stereo) [compound 186], 400 nM. The same measure for `Cc1n[nH]c(C)c1CCC(=O)N[C@H]1CC[C@H](Oc2ccc3c(c2)CCC(c2ccccc2F)O3)CC1` (relative stereo) [compound 234]: 100 nM; for `Cc1n[nH]c(C)c1CC(=O)N[C@H]1CC[C@H](Oc2ccc3c(c2)CCC(c2ccccc2F)O3)CC1` (relative stereo) [compound 235]: 1500 nM; for `O=C(Cn1cccn1)N[C@H]1CC[C@H](Oc2ccc3c(c2)CCC(c2ccccc2F)O3)CC1` (relative stereo) [compound 236]: 100 nM. On to `O=C(CCn1cncn1)N[C@H]1CC[C@H](Oc2ccc3c(c2)CCC(c2ccccc2F)O3)CC1` (relative stereo) [compound 237], for which the IC50 turned out to be 200 nM. For the compound `CCC(C)(O)C(=O)N[C@H]1CC[C@H](Oc2ccc3c(c2)CCC(c2ccccc2F)O3)CC1` (relative stereo) [compound 238], the IC50 came to 100 nM.

With `O=C(N[C@H]1CC[C@H](Oc2ccc3c(c2)CCC(c2ccccc2F)O3)CC1)C1CC1` (relative stereo) [compound 239], the IC50 was found to be 100 nM.

Take `O=C(CC(F)(F)F)N[C@H]1CC[C@H](Oc2ccc3c(c2)CCC(c2ccccc2F)O3)CC1` (relative stereo) [compound 240]: the IC50 turned out to be 100 nM. The same measure for `CSCC(=O)N[C@H]1CC[C@H](Oc2ccc3c(c2)CCC(c2ccccc2F)O3)CC1` (relative stereo) [compound 241]: 40 nM; for `Cc1noc(C)c1C(=O)N[C@H]1CC[C@H](Oc2ccc3c(c2)CCC(c2ccccc2F)O3)CC1` (relative stereo) [compound 242]: 500 nM. The same measure for `COCCC(=O)N[C@H]1CC[C@H](Oc2ccc3c(c2)CCC(c2ccccc2F)O3)CC1` (relative stereo) [compound 243]: 700 nM.

As for `Cc1nc(CC(=O)N[C@H]2CC[C@H](Oc3ccc4c(c3)CCC(c3ccccc3F)O4)CC2)c(C)s1` (relative stereo) [compound 245], the IC50 came out at 300 nM.

Broadly, the IC50 is the concentration that gives 50% inhibition.
